Assays:
Format in all cases: in vivo, mouse
miR-218 = test: Functional miR-218 levels in gastrocnemius and quadriceps by qRT-PCR; conditions: HSALR mice, 9.2 mg/kg (mean) i.v. every 2 weeks x3, day 45, vs PBS-treated HSALR
Procedure: miRNA expression in muscle tissues was quantified using specific miRCURY-locked nucleic acid microRNA PCR primers (QIAGEN) according to the manufacturer's instructions. […] Expression levels were measured using a QuantStudio 5 Real-Time PCR System (Applied Biosystems, Foster City, CA). […] Mouse handling and experimental procedures followed the European law regarding laboratory animal care and experimentation (2003/65/C.E.) and were approved by Conselleria de Agricultura, […] (reference no. A1539961490857). We used homozygous transgenic HSA^LR (line 20 b) mice,[90] which were kindly provided by Dr Thornton (Rochester, NY) and were housed and bred in our animal facility. […] The mice were randomly allocated to the different treatments as follows: in each cage, each mouse was ear-marked as it was taken out, and each mouse was then assigned to a different treatment. Animals were injected biweekly intravenously with 150 μL of 1× PBS vehicle (controls; […] Mice were sacrificed 45 days after the first injection and the tissues of interest were frozen in liquid nitrogen for the molecular and histological assays. All the mice used in this study ranged from 5 to 5.5 months of age and all were males.

HSALR mice = test: Histology, percentage of muscle fibers with central nuclei; conditions: 9.2 mg/kg (mean) i.v. every 2 weeks x3, day 45
Source text: Mouse handling and experimental procedures followed the European law regarding laboratory animal care and experimentation (2003/65/C.E.) and were approved by Conselleria de Agricultura, Generalitat Valenciana (reference no. A1539961490857). We used homozygous transgenic HSA^LR (line 20 b) mice,[90] which were kindly provided by Dr Thornton (Rochester, NY) and were housed and bred in our animal facility. Experimental groups were FVB as healthy control and HSA^LR treated with a scrambled ON (SC) and PBS as negative controls, and HSA^LR mice treated with all six experimental CPP-PMOs. The mice were randomly allocated to the different treatments as follows: in each cage, each mouse was ear-marked as it was taken out, and each mouse was then assigned to a different treatment. […]
Frozen 15-μm sections of mouse gastrocnemius and quadriceps muscles were stained with hematoxylin and eosin and mounted with DPX Mountant for histology (Sigma) according to standard procedures. […] The percentage of fibers containing central nuclei was quantified in a total of 200 fibers in each mouse.

Mbnl1 mRNA = test: Mbnl1 transcript levels in muscle by qRT-PCR; conditions: HSALR mice, 9.2 mg/kg (mean) i.v. every 2 weeks x3, day 45; quadriceps, vs PBS-treated HSALR
Procedure: (§1) Total RNA from murine gastrocnemius and quadriceps muscle was isolated using the miRNeasy Mini Kit (QIAGEN, Hilden, Germany) according to the manufacturer's instructions. One microgram of RNA was digested with DNase I (Invitrogen, Carlsbad, CA) and reverse transcribed with SuperScript II (Invitrogen) using random hexanucleotides. For subsequent PCR reactions, 20 ng of cDNA was used with GoTaq polymerase (Promega). Specific primers were used to analyze the alternative splicing of Nfix, Atp2a1, and Clcn1 in mouse samples (both muscles). Gapdh levels established the endogenous reference levels using 0.2 ng of cDNA. […] PSR index was defined as value%SI minus X %DSI , divided by […] (SI, splicing inclusion of each sample; DSI, disease splicing inclusion; HSI, healthy splicing inclusion). Overall, PSR indicates the amount in both muscles analyzed. […] Commercial TaqMan probes (QIAGEN) were used for mouse (Mbnl1 and Mbnl2; FAM-labeled probes) and reference (GAPDH; MAX-labeled probe) genes. Results were normalized to Gapdh endogenous gene expression. Expression levels were measured using a QuantStudio 5 Real-Time PCR System (Applied Biosystems, Foster City, CA). […] Mouse handling and experimental procedures followed the European law regarding laboratory animal care and experimentation (2003/65/C.E.) and were approved by Conselleria de Agricultura, […] […]

Mbnl2 mRNA = test: Mbnl2 transcript levels in muscle by qRT-PCR; conditions: HSALR mice, 9.2 mg/kg (mean) i.v. every 2 weeks x3, day 45; gastrocnemius, vs PBS-treated HSALR
Procedure: as §1

TCTTACCTCAGTTACAATTTA-Pip9b2 [Scramble, reference compound]
levels of functional miR-218 (miR-218): did not reduce functional levels
muscle fibers with central nuclei vs PBS-injected mice (HSALR mice): did not differ significantly from PBS-injected ones

6aKC-23b (antisense GGUAAUCCCUGGCAAUGUGAU; all phosphorodiamidate morpholino (PMO), T or U not given here; Pip6aKC peptide conjugated)
Mbnl1 mRNA levels (Mbnl1 mRNA): significant increases in quadriceps

9b2KC-23b (antisense GGUAAUCCCUGGCAAUGUGAU; all phosphorodiamidate morpholino (PMO), T or U not given here; Pip9b2KC peptide conjugated)
relative expression of Mbnl2 (Mbnl2 mRNA): 2.65 fold
